# Data from publication PMC4373826, “Antiviral Effect of Methylated Flavonol Isorhamnetin against Influenza” (PLoS ONE, 2015).
# Legend:
# [1] = Cytotoxicity assay (EZ-Cytox) in MDCK cells; type: cell-based, canine; conditions: dog; MDCK cells, 48 hr
# Description: (§1) To determine the 50% cytotoxic concentration (CC50) for each of the tested flavonoid compounds, MDCK cells were seeded onto 96-well plates (NUNC, Penfield, NY, USA) at a density of 1 × 10^4 cells per well and incubated overnight for 80% confluence. MDCK cells were washed twice with PBS and the culture medium was replaced with medium containing serially diluted flavonoids (concentrations from 10μM up to 300 μM) for 48 hr at 37°C in a 5% CO2atmosphere. After the incubation period, the flavonoid-containing media was replaced with new media containing 10% EZ-Cytox (Daeil Lab Service, Seoul, South Korea), and the cells were incubated in the dark for 3 hr at 37°C in a 5% CO2 atmosphere. The optical density was measured at 480 nm using an x-Mark spectrophotometer (Bio-Rad, Hercules, CA, USA). Cytotoxicity was estimated by comparing the cell survival rate of the flavonoids-treated cells and the DMSO-treated cells with the control (virus-untreated) cells. The control cell values were arbitrarily set as the 100% survival rate. The treated cells values were normalized to the control cell values. The calculation of CC50 was carried out as described in detail in S1 Text.
# (§2) The 50% cytotoxic concentration (CC50) was calculated according to the following equation:
# (§3) Cytotoxicity (%) = [100-(ODt/ODs)] x100
# (§4) ODt: The optical density (OD) of cells treated with the tested flavonoids.
# (§5) ODs: The OD of cells treated with the control solvent (0.2 % DMSO).
# (§6) After obtaining the results, we calculated the concentration that induces 50% cell death using the following equation:
# (§7) (X2 - X1) X (50-Y1) / (Y2 - Y1) + X1. Where, X1 represents the lower concentration used in this experiment, while X2 represents the higher concentration. Y1 represents the mean of the percentage of the viable cells at X1 concentration. On the other hand, Y2 represents the mean of the percentage of the viable cells at X2 concentration.”
# [2] = system: influenza A/PR/8/34 (H1N1); type: cell-based, influenza A virus; conditions: post-treatment 48 hr
# [3] = system: influenza A/PR/8/34 (H1N1); conditions: post-treatment
# [4] = system: influenza A/PR/8/34 (H1N1); assay: in vitro; conditions: dog, SI (selective index, CC50/EC50), Post-treatment
# [5] = system: influenza A/PR/8/34 (H1N1); assay: microbe, parasite or virus in culture; conditions: MDCK
# MDCK cells = assay: Cytotoxicity assay (EZ-Cytox) in MDCK cells; type: cell-based, canine; conditions: especially at 50μM and 100μM
# Description: as §1, §2, §3, §4, §5, §6, §7
smiles,measurement,setting,value
"O=c1c(O)c(-c2ccc(O)cc2)oc2cc(O)cc(O)c12 [Kaempferol, kaempferol]",CC50 at 48 h,[1],245 µM
same,virus titer in HA assay (virus yield reduction),[2],significantly decreased
same,influenza virus-induced cell death,[3],apparent suppression
same,selectivity ratio,[4],7
same,EC50,"[5]; 48 h, Post-treatment",35 µM
"O=C1C[C@@H](c2ccc(O)c(O)c2)Oc2cc(O)cc(O)c21 [Eriodictyol, eriodictyol]",CC50 at 48 h,[1],256 µM
same,cell viability of MDCK cells,MDCK cells,significant decrease
same,selectivity ratio,[4],2
same,EC50,"[5]; 48 h, Post-treatment",115 µM
"O=c1c(O)c(-c2ccc(O)c(O)c2)oc2cc(O)cc(O)c12 [Quercetin, quercetin]",CC50 at 48 h,[1],> 265 µM
same,virus titer in HA assay (virus yield reduction),[2],significantly decreased
same,influenza virus-induced cell death,[3],apparent suppression
same,selectivity ratio,[4],> 9
same,EC50,"[5]; 0.5 h, Co-treatment (0.5 hr)",106 µM
same,EC50,"[5]; 1 h, Co-treatment (1 hr)",62 µM
same,EC50,"[5]; 2 h, Co-treatment (2 hr)",43 µM
same,EC50,"[5]; 48 h, Post-treatment",30 µM
same,EC50,[5]; Pre-treatment (1 hr),78 µM
same,EC50,[5]; Pre-treatment (12 hr),85 µM
same,EC50,[5]; Pre-treatment (24 hr),98 µM
"COc1ccc(-c2cc(=O)c3c(O)cc(O)cc3o2)cc1O [Diosmetin, diosmetin]",EC50,"[5]; 48 h, Post-treatment",124 µM
